Test results: patent US4356183A, “Antihypertensive 4-thiazolidinecarboxylic acids (pyridyl derivatives)” (Santen Pharmaceutical Co., Ltd., priority 1978, dated 1982)

Tested on: pressor response to angiotensin I
Assay: Inhibition of pressor response to angiotensin I in rats after oral administration
Format: in vivo, rat (male Wistar)
Details: angiotensin I 300 ng/kg i.v.; for Inhibition (%) of pressor response to angiotensin I, 5 min / Inhibition (%) of pressor response to angiotensin I, 15 min / Inhibition (%) of pressor response to angiotensin I, 25 min / Inhibition (%) of pressor response to angiotensin I, 35 min / Inhibition (%) of pressor response to angiotensin I, 45 min / Inhibition (%) of pressor response to angiotensin I, 55 min / Inhibition (%) of pressor response to angiotensin I, 65 min / Inhibition (%) of pressor response to angiotensin I, 75 min / Inhibition (%) of pressor response to angiotensin I, 85 min: dose: 3, 45, 49 1.8 mg/kg, 4, 46 1.3, 50 1.4, 76 2.0, 77 1.5; for Inhibition (%) of pressor response to angiotensin I, 95 min: dose: 45, 49 1.8 mg/kg, 4, 46 1.3, 50 1.4, 76 2.0, 77 1.5; for Inhibition (%) of pressor response to angiotensin I, 105 min / Inhibition (%) of pressor response to angiotensin I, 115 min: dose: 45, 49 1.8 mg/kg, 46 1.3, 50 1.4, 76 2.0, 77 1.5

SMILES	Inhibition (%) of pressor response to angiotensin I, 5 min [%]	Inhibition (%) of pressor response to angiotensin I, 15 min [%]	Inhibition (%) of pressor response to angiotensin I, 25 min [%]	Inhibition (%) of pressor response to angiotensin I, 35 min [%]	Inhibition (%) of pressor response to angiotensin I, 45 min [%]	Inhibition (%) of pressor response to angiotensin I, 55 min [%]	Inhibition (%) of pressor response to angiotensin I, 65 min [%]	Inhibition (%) of pressor response to angiotensin I, 75 min [%]	Inhibition (%) of pressor response to angiotensin I, 85 min [%]	Inhibition (%) of pressor response to angiotensin I, 95 min [%]	Inhibition (%) of pressor response to angiotensin I, 105 min [%]	Inhibition (%) of pressor response to angiotensin I, 115 min [%]
C[C@H](CS)C(=O)N1C(c2ccccc2O)SC[C@H]1C(=O)O (stereo partly drawn) [Compound 50]	11.1	22.7	37.6	43.9	52.6	31.7	28.1	30.5	24.3	21.1	21.7	21.5
COc1ccc(C2SC[C@@H](C(=O)O)N2C(=O)[C@H](C)CS)c(O)c1 (stereo partly drawn) [Compound 77]	35.0	45.0	54.2	50.8	57.2	49.2	47.8	34.8	31.7	24.2	18.7	6.7
